Source: patent EP0426225A2, “(6,7-dihydro-5H-pyrrolo[1,2-c]-imidazol-5-yl)- and (5,6,7,8-tetrahydroimidazo[1,5-a]pyridin-5-yl) substituted 1H-benzotriazole derivatives” (JANSSEN PHARMACEUTICA N.V., priority 1989, dated 1991)
Structures can show the parent of a compound that is named as a salt. Where two headings read alike, the source gives them in different places.

Experiments:
[1] = target: T1, aromatase (Rattus norvegicus, UniProt P22443); test: In vivo inhibition of the aromatase activity (plasma estradiol in PMSG-injected immature female rats); design: species or system Wistar rats; conditions: read-out: Aromatase in vivo % inhibition at 1 mg/kg
T1 construct: Immature female Wistar rats weighing 120 g were injected subcutaneously; from tissue; host or cells: whole animal: immature female Wistar rats primed with PMSG (endogenous, mainly ovarian, aromatase by own knowledge)
T1 sequence (P22443 1-508): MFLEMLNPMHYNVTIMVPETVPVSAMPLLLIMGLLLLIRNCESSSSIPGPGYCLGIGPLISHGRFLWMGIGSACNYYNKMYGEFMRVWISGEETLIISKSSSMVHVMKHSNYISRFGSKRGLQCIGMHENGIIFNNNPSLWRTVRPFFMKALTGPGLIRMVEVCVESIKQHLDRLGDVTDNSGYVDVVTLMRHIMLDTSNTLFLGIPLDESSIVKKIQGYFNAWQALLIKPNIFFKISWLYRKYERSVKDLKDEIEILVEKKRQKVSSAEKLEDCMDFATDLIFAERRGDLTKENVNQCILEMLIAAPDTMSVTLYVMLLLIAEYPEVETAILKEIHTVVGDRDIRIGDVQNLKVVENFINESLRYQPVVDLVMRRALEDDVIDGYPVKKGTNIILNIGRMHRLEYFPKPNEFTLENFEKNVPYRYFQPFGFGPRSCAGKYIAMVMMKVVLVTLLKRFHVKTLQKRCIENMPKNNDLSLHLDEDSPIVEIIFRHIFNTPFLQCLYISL
Protocol: Immature female Wistar rats weighing 120 g were injected subcutaneously with 200 I.U. of pregnant mare's serum gonadotropin (PMSG). Ninety hours later, 1 mg/kg of the test compound dissolved in 0.5 ml 20% polyethyleneglycol in water was administered by oral gavage. Control animals received 20% polyethyleneglycol only. Two hours following drug or placebo administration the rats were killed by decapitation and trunk blood was collected on heparine. Plasma estradiol concentrations were measured by standard radio-immunological procedures. […]

[2] = target: T2, aromatase (Homo sapiens, UniProt P11511); test: In vitro inhibition of the aromatase activity test (conversion of 1,2[3H]-androstenedione into estrone and estradiol, human placental microsomes); format: biochemical; conditions: 30 min at 37°C, concentration required to obtain 50% inhibition of the estrogen synthesis, read-out: Aromatase in vitro IC₅₀
T2 construct: from tissue; host or cells: human placental microsomes
T2 sequence (P11511 1-503): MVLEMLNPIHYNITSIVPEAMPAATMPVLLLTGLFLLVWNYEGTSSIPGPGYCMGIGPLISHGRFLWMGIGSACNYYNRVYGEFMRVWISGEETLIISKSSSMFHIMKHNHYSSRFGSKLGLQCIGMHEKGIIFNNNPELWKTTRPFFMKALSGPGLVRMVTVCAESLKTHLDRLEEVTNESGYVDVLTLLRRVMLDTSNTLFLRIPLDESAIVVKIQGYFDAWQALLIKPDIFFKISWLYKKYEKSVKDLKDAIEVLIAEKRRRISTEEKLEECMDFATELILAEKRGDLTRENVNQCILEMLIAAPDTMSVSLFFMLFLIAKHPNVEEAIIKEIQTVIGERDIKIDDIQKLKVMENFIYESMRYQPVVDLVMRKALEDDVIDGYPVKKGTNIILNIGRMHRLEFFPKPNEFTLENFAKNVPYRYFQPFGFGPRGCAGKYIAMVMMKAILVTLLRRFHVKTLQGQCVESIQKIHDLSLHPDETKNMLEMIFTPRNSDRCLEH
Protocol: Human placental microsomes were diluted in potassium phosphate buffer (0.1M, pH 7.4) to give about 50% conversion of androgens to estrogens (protein content : about 0.5 mg). Four ml human placental microsomes were incubated in a final volume of 5 ml with 0.2 µCi 1,2[³H]-androstenedione, 2 µg androstenedione and 5 µl of test compound and/or dimethylsulfoxide (DMSO). […] The reaction was initiated by the addition of androstenedione and proceeded for 30 min at 37°C. During the incubation period, the mixtures were gassed with air. In this assay, aromatization of androstenedione results in the production of [3H]-H₂O which is isolated by extracting the samples with chloroform to remove the free steroid.

[3] = 1 mg/kg by oral gavage, immature female Wistar rats 90 h after PMSG, plasma estradiol two hours after administration, relative to controls

Row | SMILES | inhibition at 1 mg/kg [1, 3] [%] | IC50 [2] [nM] | inhibition at 1 mg/kg ([1]; po) [%]
1 | CCOn1nnc2ccc(C3CCCc4cncn43)cc21 (stereo not shown) [Compound 4] | 94 | 37.5 | –
2 | CCCCOn1nnc2ccc(C3CCCc4cncn43)cc21 (stereo not shown) [Compound 10] | 88 | 31.7 | –
3 | c1cc2nnn(C3CCCC3)c2cc1C1CCCc2cncn21 (stereo not shown) [Compound 30] | 93 | 42.3 | –
4 | CC(C)Cn1nnc2ccc(C3CCCc4cncn43)cc21 (stereo not shown) [Compound 33] | 96 | 46 | –
5 | C=C(C)COn1nnc2ccc(C3CCCc4cncn43)cc21 (stereo not shown) [Compound 12] | 85 | 25.2 | –
6 | CC(C)(C)n1nnc2ccc(C3CCCc4cncn43)cc21 (stereo not shown) [Compound 32] | 95 | 54 | –
7 | c1cc2nnn(C3CCCCC3)c2cc1C1CCCc2cncn21 (stereo not shown) [Compound 35] | 98 | 41 | –
8 | CCCOn1nnc2ccc(C3CCCc4cncn43)cc21 (stereo not shown) [Compound 3] | 92 | 29.5 | –
9 | CC(C)COn1nnc2ccc(C3CCCc4cncn43)cc21 (stereo not shown) [Compound 6] | 86 | 59.2 | –
10 | c1cc2nnn(OCC3CC3)c2cc1C1CCCc2cncn21 (stereo not shown) [Compound 8, 1-(cyclopropylmethoxy)-6-(5,6,7,8-tetrahydroimidazo[1,5-a]pyridin-5-yl)-1H-benzotriazole mononitrate] | – | 31.9 | 87
11 | CCCCCCn1nnc2ccc(C3CCCc4cncn43)cc21 (stereo not shown) [Compound 27] | 86 | 25.4 | –
12 | N#CCCCCOn1nnc2ccc(C3CCCc4cncn43)cc21 (stereo not shown) [Compound 18] | 88 | 34.6 | –
13 | N#Cc1ccc(COn2nnc3ccc(C4CCCc5cncn54)cc32)cc1 (stereo not shown) [Compound 2] | 96 | 44.2 | –
14 | C#CCOn1nnc2ccc(C3CCCc4cncn43)cc21 (stereo not shown) [Compound 14] | 80 | 29.5 | –
15 | CCCn1nnc2ccc(C3CCCc4cncn43)cc21 (stereo not shown) [Compound 31] | 96 | 43.5 | –
16 | CC(C)n1nnc2ccc(C3CCCc4cncn43)cc21 (stereo not shown) [Compound 25] | 91 | 55.6 | –
17 | COn1nnc2ccc(C3CCCc4cncn43)cc21 (stereo not shown) [Compound 9] | 89 | 57 | –
18 | Cn1nnc2ccc(C3CCCc4cncn43)cc21 (stereo not shown) [Compound 23] | 93 | 89.8 | –
19 | C=CCOn1nnc2ccc(C3CCCc4cncn43)cc21 (stereo not shown) [Compound 5] | 95 | 27.9 | –
20 | CCC(C)On1nnc2ccc(C3CCCc4cncn43)cc21 (stereo not shown) [Compound 20] | 87 | 39.3 | –
21 | CCCCn1nnc2ccc(C3CCCc4cncn43)cc21 (stereo not shown) [Compound 24] | 89 | 31.7 | –
22 | OCCOn1nnc2ccc(C3CCCc4cncn43)cc21 (stereo not shown) [Compound 21] | 88 | < 1000 | –
23 | CCn1nnc2ccc(C3CCCc4cncn43)cc21 (stereo not shown) [Compound 26, 1-ethyl-6-(5,6,7,8-tetrahydroimidazo[1,5-a]pyridin-5-yl)-1H-benzotriazole monohydrochloride] | 93 | 54 | –
